Source: the supplement of paper PMC10307832

Assays:
Assay in all cases: relative viability (nuclei count vs DMSO), 5 days (fraction); higher = more cells survive
[1] = compound: C1=CC=C2C(=C1)N=C(S2)C(C#N)C3=NC(=NC=C3)NCCC4=CN=CC=C4 + N=C(N)NC(=N)NCCc1ccccc1 [Phenformin] (partner 250 µM)
Outline: (§1)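 Values are medians from duplicate plates. Each reflects relative viability, defined as the nuclei count of treated wells over that of vehicle wells. Lung cancer cell lines in 1536-well plates were pin-tool dosed one day after seeding with one drug alone or with a fixed anchor-drug dose plus five library-drug doses (not always all listed) in √10 steps, then fixed, stained and imaged at 4× after 5 days.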

NVP-TAE684 + Alpelisib = compound: COc1cc(N2CCC(N3CCN(C)CC3)CC2)ccc1Nc1ncc(Cl)c(Nc2ccccc2S(=O)(=O)C(C)C)n1 [NVP-TAE684] + Cc1nc(NC(=O)N2CCC[C@H]2C(N)=O)sc1-c1ccnc(C(C)(C)C(F)(F)F)c1 [Alpelisib] (partner 2 µM)
Outline: as §1

Vandetanib + Dasatinib = compound: COc1cc2/c(=N/c3ccc(Br)cc3F)nc[nH]c2cc1OCC1CCN(C)CC1 [Vandetanib] + Cc1nc(Nc2ncc(C(=O)Nc3c(C)cccc3Cl)s2)cc(N2CCN(CCO)CC2)n1 [Dasatinib] (partner 0.075 µM)
Outline: as §1

Vandetanib + AZD7762 = compound: COc1cc2/c(=N/c3ccc(Br)cc3F)nc[nH]c2cc1OCC1CCN(C)CC1 [Vandetanib] + NC(=O)Nc1cc(-c2cccc(F)c2)sc1C(=O)N[C@H]1CCCNC1 [AZD7762] (partner 0.2 µM)
Outline: as §1

| Cell Line | relative viability ([1]; first compound 0.005 µM) | relative viability ([1]; first compound 0.01581 µM) | relative viability ([1]; first compound 0.05 µM) | relative viability ([1]; first compound 0.1581 µM) | relative viability ([1]; first compound 0.5 µM) | relative viability (NVP-TAE684 + Alpelisib; first compound 0.2 µM) | relative viability (NVP-TAE684 + Alpelisib; first compound 0.6325 µM) | relative viability (NVP-TAE684 + Alpelisib; first compound 2 µM) | relative viability (Vandetanib + Dasatinib; first compound 0.02 µM) | relative viability (Vandetanib + Dasatinib; first compound 0.06325 µM) | relative viability (Vandetanib + Dasatinib; first compound 0.2 µM) | relative viability (Vandetanib + Dasatinib; first compound 0.6325 µM) | relative viability (Vandetanib + Dasatinib; first compound 2 µM) | relative viability (Vandetanib + AZD7762; first compound 0.02 µM) | relative viability (Vandetanib + AZD7762; first compound 0.06325 µM) | relative viability (Vandetanib + AZD7762; first compound 0.2 µM) | relative viability (Vandetanib + AZD7762; first compound 0.6325 µM) | relative viability (Vandetanib + AZD7762; first compound 2 µM) |
| --- | --- | --- | --- | --- | --- | --- | --- | --- | --- | --- | --- | --- | --- | --- | --- | --- | --- | --- |
| HOP-62 | 0.4 | 0.764 | 0.633 | 0.788 | 0.523 | 1.16 | 0.891 | 0.946 | 0.611 | 0.569 | 0.671 | 0.573 | 0.684 | 0.661 | 0.536 | 0.577 | 0.412 | 0.485 |
| IA-LM | – | – | – | – | – | 0.588 | 0.55 | 0.431 | – | – | – | – | – | – | – | – | – | – |
| LC-2-ad | 0.575 | 0.507 | 0.541 | 0.598 | 0.611 | 0.813 | 0.801 | 0.232 | 0.574 | 0.471 | 0.49 | 0.317 | 0.211 | 0.807 | 0.809 | 0.766 | 0.756 | 0.69 |
| LCLC-97TM1 | 0.429 | 0.417 | 0.403 | 0.431 | 0.407 | 0.194 | 0.233 | 0.127 | 0.801 | 0.848 | 0.807 | 0.865 | 0.786 | 0.185 | 0.306 | 0.299 | 0.261 | 0.139 |
| LCLC-103H | 0.289 | 0.336 | 0.286 | 0.369 | 0.298 | 0.99 | 0.986 | 0.995 | 0.511 | 0.422 | 0.43 | 0.424 | 0.47 | 0.755 | 0.783 | 0.758 | 0.772 | 0.82 |
| LK-2 | 0.392 | 0.289 | 0.396 | 0.58 | 0.33 | 0.846 | 1.07 | 0.574 | 0.261 | 0.24 | 0.295 | 0.239 | 0.221 | 0.36 | 0.345 | 0.309 | 0.369 | 0.515 |
| LOU-NH91 | 0.677 | 0.702 | 0.597 | 0.687 | 0.685 | 0.68 | 0.623 | 0.532 | 0.53 | 0.433 | 0.506 | 0.442 | 0.317 | 0.759 | 0.765 | 0.678 | 0.718 | 0.755 |
| NCI-H520 | 0.494 | 0.472 | 0.556 | 0.636 | 0.532 | 1.17 | 1.16 | 0.354 | 0.139 | 0.228 | 0.218 | 0.191 | 0.225 | – | – | – | – | – |
| NCI-H522 | 0.649 | 0.642 | 0.61 | 0.691 | 0.588 | – | – | – | 0.849 | 0.724 | 0.885 | 0.808 | 0.821 | 0.753 | 0.876 | 0.738 | 0.92 | 0.699 |
| NCI-H661 | 0.231 | 0.255 | 0.291 | 0.291 | 0.277 | 0.808 | – | 0.596 | 0.988 | 0.856 | 0.837 | 0.803 | 0.874 | – | – | – | – | – |
| NCI-H1299 | – | – | – | – | – | 0.974 | 1.1 | 0.992 | – | – | – | – | – | – | – | – | – | – |
| NCI-H1563 | 0.595 | 0.62 | 0.635 | 0.673 | 0.667 | 0.802 | 0.828 | 0.903 | 0.44 | 0.443 | 0.462 | 0.472 | 0.454 | – | – | – | – | – |
| NCI-H1623 | 0.62 | 0.582 | 0.567 | 0.617 | 0.579 | – | – | – | 0.489 | 0.576 | 0.502 | 0.507 | 0.404 | – | – | – | – | – |
| NCI-H1648 | – | – | – | – | – | – | – | – | – | – | – | – | – | 0.643 | 0.601 | 0.676 | 0.638 | 0.625 |
| NCI-H1650 | 0.375 | 0.335 | 0.523 | 0.402 | 0.377 | – | – | – | 0.322 | 0.275 | 0.322 | 0.292 | 0.305 | – | – | – | – | – |
| NCI-H1703 | – | – | – | – | – | 0.401 | 0.334 | 0.21 | – | – | – | – | – | 0.129 | – | 0.159 | 0.132 | 0.134 |
| NCI-H2009 | 0.466 | 0.477 | 0.476 | 0.508 | 0.437 | 1.11 | 1.14 | 0.927 | 0.326 | 0.241 | 0.329 | 0.309 | 0.349 | – | – | – | – | – |
| NCI-H2023 | 0.384 | 0.439 | 0.424 | 0.47 | 0.423 | 0.589 | 0.537 | 0.308 | 0.584 | 0.563 | 0.514 | 0.542 | 0.59 | – | – | – | – | – |
| NCI-H2228 | 0.19 | 0.281 | 0.299 | 0.316 | 0.314 | 0.381 | 0.255 | 0.153 | 0.464 | 0.478 | 0.503 | 0.463 | 0.481 | – | – | – | – | – |
| NCI-H2342 | 0.495 | 0.591 | 0.674 | 0.606 | 0.614 | – | – | – | 0.339 | 0.335 | 0.321 | 0.315 | 0.361 | 0.483 | 0.479 | 0.707 | 0.537 | 0.365 |
| SK-LU-1 | 0.323 | 0.593 | 0.529 | 0.608 | 0.475 | 1.1 | 0.863 | 0.4 | 0.195 | 0.151 | 0.184 | 0.18 | 0.173 | – | – | – | – | – |
| SK-MES-1 | 0.677 | 0.776 | 0.648 | 0.767 | 0.62 | 0.691 | 1 | 0.827 | 0.358 | 0.33 | 0.347 | 0.27 | 0.286 | – | – | – | – | – |
| SW 900 | 0.418 | 0.704 | 0.627 | 1.02 | 0.338 | – | – | – | 0.445 | 0.57 | 0.537 | 0.641 | 0.409 | 0.6 | 0.607 | – | 0.598 | 0.688 |
| SW 1573 | 0.251 | 0.395 | – | 0.484 | 0.382 | 0.574 | 0.827 | 0.592 | 0.449 | 0.577 | 0.598 | 0.441 | 0.674 | – | – | – | – | – |
